{"source": "patent US8293211B2", "about": "“CB1 receptor antagonists and uses thereof” (MAKScientific, LLC, priority 2007, dated 2012)", "format_in_all_cases": "in vivo, rat", "key": {"Rats [1]": {"test_system": "Rats", "assay": "Operant lever pressing on FR5 schedules", "method": "Following the initial training period, rats (n=8 each group) were injected with drug and then tested once a week on Thursdays. For experiments 1 and 2, Compound 3 or Compound 2, respectively were injected IP at doses of 1.0, 2.0, 4.0, or 8.0 mg/kg or vehicle. Pretreatment time for these two experiments was 30 min. For experiments 3 and 4, rats were given drug or vehicle orally 1 hour before testing. In experiment 3, rats were given vehicle or 8.0, 16.0, or 32.0 mg/kg Compound 3. In experiment 4, rats received vehicle or Compound 2 at doses of 4.0, 8.0, or 16.0 mg/kg. All doses were given in a randomized order using a repeated measures design."}, "Rats [2]": {"test_system": "Rats", "assay": "Taste reactivity studies (conditioned gaping, saccharin preference)", "conditions": "for Mean (±SEM) saccharin preference ratio: 2-bottle preference test", "method": "Rats were implanted with intraoral cannulae and 24 hrs prior to the surgical procedure, they were administered a prophylactic antibiotic (Derapin, 100 mg/kg, sc; Ayerst). On the day of surgery, the rats were anaesthetized with isofluorane gas and were administered Anafen (7.0 mg/kg, sc; Merial), a nonsteroidal anti-inflammatory drug (NSAID) with analgesic properties. A 3.0 cm^2 patch of fur was shaved at the back of the neck just above the scapula and the area was surgically prepared [Betadine surgical scrub (Purdue Frederick) and alcohol]. A thin-walled 15-gauge stainless steel needle was inserted at the back of the neck, directed s.c., around the ear and brought out behind the first molar inside the mouth. A length of IntraMedic polyetheylene tubing with an inner diameter of 0.86 mm and an outer diameter of 1.27 mm was then run through the needle after which the needle was removed. Two circular elastic discs were placed over the tubing and drawn to the exposed skin at the back of the neck for the purpose of stabilizing the cannula. The tubing was held secure in the oral cavity by an o-ring, which was sealed behind the tubing prior to cannulation surgery. For the purposes of conditioning and testing, the cannula was connected to the infusion pump (Harvard Apparatus, South Natick, Mass.) for delivery of the solution by slipping the tubing of the cannula inside a second polyethylene tube (inner diameter 1.19 mm, outer diameter 1.70 mm) attached to the infusion pump. Two rats were subsequently removed from the study due to an ineffective cannula.\nFive days after surgery and prior to conditioning (day 1), rats were individually placed in the Plexiglas taste reactivity chamber (22.5×26×20 cm) with their cannula attached to the infusion pump for fluid delivery. The rats were habituated to the taste reactivity procedure by infusing them with water for a period of 5 min at a rate of 1.0 ml/min after which they were returned to their home cage. On day 2, the rats were individually taken to the chamber for a single conditioning trial. They were intraorally infused with 0.1% saccharin solution for 5 min at a rate of 1.0 ml/min while their orofacial and somatic responses were videotaped from a mirror at a 45° angle below the chamber. Immediately after the saccharin infusion the rats were injected with the appropriate dose of Compound 3, according to random assignment: 0.0 mg/kg (vehicle; n=8), 2.0 mg/kg (n=7), 4.0 mg/kg (n=7), 8.0 mg/kg (n=8). On day 5, the animals were given a second adaptation trial with a 5-min intraoral infusion of water.\nTaste reactivity testing occurred on day 6, 96 hr after conditioning. The rats were taken to the chamber and following a period of 1 min were infused with 0.1% saccharin solution over a period of 5 min (1.0 ml/min) while being videotaped. Immediately after the session, the rats were returned to their home cage. On day 7, following 15 hr of water deprivation, the rats were given a 2-bottle preference test. The rats were presented with a graduated tube containing 0.1% saccharin solution and a graduated tube containing water for a period of 120 min. The amount consumed from each bottle during the 120 min of drinking was converted to a preference score: Amount consumed of saccharin solution/amount consumed of saccharin+amount consumed of water. The taste reactivity videotapes were scored using the Observer (Noldus Information Technology, Sterling, Va.) event-recording program. The behaviors scored included the frequency of gaping, chin rubs, ingestive reactions, passive drips and activity. Gaping was defined as rapid, large-amplitude opening of the mandible with retraction of the corners of the mouth. Chin rubbings were defined as chin or mouth in direct contact with the floor or wall of the chamber and forward projections of the body. […]"}, "Rats [3]": {"test_system": "Rats", "assay": "Food intake studies using different diets", "conditions": "2.0, 4.0, 8.0 mg/kg IP 30 min prior; high-fat, high-carbohydrate, lab chow", "description": "Animals were assigned to three different diet conditions (n=10/group). One group was assigned to a high-fat diet (HF; Diet # D12451, Research Diets, New Brunswick, N.J., 20% protein, 45% fat, 35% carbohydrate). A second group was given a high-carbohydrate diet (HC; Diet # D12450B, Research Diets, New Brunswick, N.J., 20% protein, 10% fat, 70% carbohydrate). The remaining group was fed a standard chow diet (LC, 5P00 Prolab RMH 3000, PMI Nutrition International, St. Louis, Mo.; 26% protein, 14% fat, 60% carbohydrate). Food blocks from each type of diet were nutritionally complete and similar in appearance and weight. Rats were given free access to lab chow in their home cages until the beginning of a five day habituation period. On the first day of habituation, rats were assigned to their respective dietary groups and moved into suspended wire mesh test cages containing their assigned food type. After spending 30 min in the test cage, they were returned to their home cages. After this initial habituation period, rats were given free access to lab chow in their home cages every Thursday afternoon through Monday afternoon. Each Tuesday and Wednesday, rats spent 30 min in the test cages with their assigned diets. On Thursdays, the injected animals were placed in the test cages with a pre-weighed amount of assigned food. A piece of cardboard was placed underneath the chamber to catch spillage. […]"}}, "data": [{"compound": "Cc1c(C(=O)NN2CCCCC2)nn(-c2ccc(Cl)cc2Cl)c1-c1ccc(C#CCCC#N)cc1", "note": "[Compound 3]", "values": [{"measurement": "suppression of FR5 responding compared to vehicle", "setting": "Rats [1]; IP 1.0, 2.0, 4.0, 8.0 mg/kg", "result": "significantly suppressed"}, {"measurement": "ED50", "setting": "Rats [1]; Rattus norvegicus, IP, pretreatment 30 min, read-out: ED50 for the effect on FR5 responding", "result": 0.78, "unit": "mg/kg"}, {"measurement": "change in lever pressing on FR5 compared to vehicle", "setting": "Rats [1]; oral, 1 hour before testing (Compound 3 8.0-32.0 mg/kg; Compound 2 4.0-16.0 mg/kg)", "result": "no significant change"}, {"measurement": "ingestion (hedonic) taste reactions, Mean±SEM", "setting": "Rats [2]; 2.0 mg/kg", "result": "10.5 (3.2)"}, {"measurement": "Mean (±SEM) saccharin preference ratio", "setting": "Rats [2]; 2.0 mg/kg", "result": "0.411 (0.059)"}, {"measurement": "ingestion (hedonic) taste reactions, Mean±SEM", "setting": "Rats [2]; 4.0 mg/kg", "result": "4.5 (1.5)"}, {"measurement": "Mean (±SEM) saccharin preference ratio", "setting": "Rats [2]; 4.0 mg/kg", "result": "0.298 (0.074)"}, {"measurement": "ingestion (hedonic) taste reactions, Mean±SEM", "setting": "Rats [2]; 8.0 mg/kg", "result": "1.3 (0.5)"}, {"measurement": "Mean (±SEM) saccharin preference ratio", "setting": "Rats [2]; 8.0 mg/kg", "result": "0.088 (+0.017)"}, {"measurement": "effect on chin rubbing or conditioned gaping", "setting": "Rats [2]; 2.0, 4.0, 8.0 mg/kg", "result": "no significant effects"}, {"measurement": "food intake over vehicle across all diet groups", "setting": "Rats [3]", "result": "significantly suppressed food intake"}]}]}
